The text below walks through data of patent US10301280B2 (Plexxikon Inc., priority 2012, dated 2019).

One assay concerns the target c-kit mutant D816V (Homo sapiens (Human), UniProt P10721, D816V/DEL694-753). Put plainly: c-Kit mutant D816V biochemical assay (AlphaScreen). The note with it: c-kit D816V biochemical inhibitory activity. How it is done:
The c-kit mutant D816V (or kinase domain thereof) is an active kinase in AlphaScreen. IC50 values are determined with respect to inhibition of c-Kit mutant D816V kinase activity, where inhibition of phosphorylation of a peptide substrate is measured as a function of compound concentration. Compounds to be tested were dissolved in DMSO to a concentration of 20 mM. These were diluted 30 μl into 120 μl of DMSO (4 mM) and 1 μl was added to an assay plate. These were then serially diluted 1:3 (50 μl to 100 μl DMSO) for a total of 8 points. Plates were prepared such that each kinase reaction is 20 μl in 1× kinase buffer (25 mM HEPES, pH 7.2, 8 mM MgCl2, 2 mM MnCl2, 50 mM NaCl, 0.01% Brij, 1 mM DTT, 0.01% BSA), 5% DMSO and 10 μM ATP. Substrate was 30 nM biotin-(E4Y)10 (EMD Millipore, Cat#12-440). C-kit mutant D816V kinase was at 0.75 ng per sample. After incubation of the kinase reaction for 30 minutes at room temperature, 5 μl of donor beads (Streptavidin coated beads (Perkin Elmer Life Science) final concentration 7.5 μg/ml) in stop buffer (25 mM Hepes pH 7.5, 100 mM EDTA, 0.01% BSA) was added, the sample was mixed and incubated for 20 minutes at room temperature before adding 5 μl of acceptor beads (PY20 coated beads (Perkin Elmer Life Science) final concentration 7.5 ug/ml) in stop buffer. The samples were incubated for 60 minutes at room temperature and the signal per well was read on EnVision reader. Phosphorylated substrate results in binding of the PY20 antibody and association of the donor and acceptor beads such that signal correlates with kinase activity. The signal vs. compound concentration was used to determine the IC50.
Recombinant c-kit mutant D816V (residues 551-934, kinase insertion domain residues 694-753 deleted) with a 6x-histidine N-terminal tag was expressed in E. coli Arctic Express (DE3) RIL (Stratagene). Cells were grown in Terrific Broth (TB) media to an OD600 of 0.6 at 37° C. at which temperature was reduced to 10° C., protein was induced with 1.0 mM IPTG for 18 hours and harvested by centrifugation at 8000×g for 20 minutes. Cells were re-suspended in 0.1M KPO4 pH 8.0, 250 mM NaCl, 10% Glycerol, 0.75% NP-40, 25 mM Imidazole, 5 mM BME with 0.2 mg/ml Lysosyme, 2.0 mM PMSF, 25 μg/ml DNAse I, incubated in ice for 30 minutes and lyzed with a cell disruptor (MicroFluidics). The lysate was clarified by centrifugation at 20,000×g for 2 hours. The protein was captured with Talon resin (Clontech). Contaminating proteins were washed off with 25 mM Tris-HCl pH 8.3, 250 mM NaCl, 15% Glycerol, 1% Triton X-100, and protein eluted using 100 mM EDTA. The protein was further purified using Gel Filtration column 26/600 Superdex 200 (GE) in 50 mM Tris-HCl, pH 8.0, 250 mM NaCl, 15% Glycerol, 5 mM BME. The protein was aliquoted and flash-frozen in liquid Nitrogen.
For orientation: In Alpha technology, singlet oxygen from a donor bead excites a nearby acceptor bead.

A further assay deals with c-kit kinase (Homo sapiens (Human), UniProt P10721). Put plainly: c-Kit biochemical assay (AlphaScreen). Conditions: c-kit biochemical inhibitory activity. How it is done: Assays for biochemical cell-based activity of c-kit kinase are known in the art, for example, as described in U.S. Pat. Nos. 7,498,342 and 7,846,941, the disclosures of which are hereby incorporated by reference as it relates to such assays. The c-kit (or kinase domain thereof) is an active kinase in AlphaScreen. IC50 values are determined with respect to inhibition of c-Kit kinase activity, where inhibition of phosphorylation of a peptide substrate is measured as a function of compound concentration. Compounds to be tested were dissolved in DMSO to a concentration of 20 mM. These were diluted 30 μl into 120 μl of DMSO (4 mM) and 1 μl was added to an assay plate. These were then serially diluted 1:3 (50 μl to 100 μl DMSO) for a total of 8 points. Plates were prepared such that each kinase reaction is 20 μl in 1× kinase buffer (50 mM HEPES, pH 7.2, 5 mM MgCl2, 5 mM MnCl2, 0.01% NP-40, 0.2% BSA), 5% DMSO and 10 µM ATP. Substrate was 100 nM biotin-(E4Y)3 (Open Source Biotech, Inc.). C-kit kinase was at 0.1 ng per sample. After incubation of the kinase reaction for 1 hour at room temperature, 5 μl of donor beads (Streptavidin coated beads (Perkin Elmer Life Science) final concentration 1 μg/ml) in stop buffer (50 mM EDTA in 1× kinase buffer) was added, the sample was mixed and incubated for 20 minutes at room temperature before adding 5 μl of acceptor beads (PY20 coated beads (Perkin Elmer Life Science) final concentration 1 μg/ml) in stop buffer. The samples were incubated for 60 minutes at room temperature and the signal per well was read on AlphaQuest reader. Phosphorylated substrate results in binding of the PY20 antibody and association of the donor and acceptor beads such that signal correlates with kinase activity. The signal vs. compound concentration was used to determine the IC50.
c-kit kinase, sequence (P10721 26-976): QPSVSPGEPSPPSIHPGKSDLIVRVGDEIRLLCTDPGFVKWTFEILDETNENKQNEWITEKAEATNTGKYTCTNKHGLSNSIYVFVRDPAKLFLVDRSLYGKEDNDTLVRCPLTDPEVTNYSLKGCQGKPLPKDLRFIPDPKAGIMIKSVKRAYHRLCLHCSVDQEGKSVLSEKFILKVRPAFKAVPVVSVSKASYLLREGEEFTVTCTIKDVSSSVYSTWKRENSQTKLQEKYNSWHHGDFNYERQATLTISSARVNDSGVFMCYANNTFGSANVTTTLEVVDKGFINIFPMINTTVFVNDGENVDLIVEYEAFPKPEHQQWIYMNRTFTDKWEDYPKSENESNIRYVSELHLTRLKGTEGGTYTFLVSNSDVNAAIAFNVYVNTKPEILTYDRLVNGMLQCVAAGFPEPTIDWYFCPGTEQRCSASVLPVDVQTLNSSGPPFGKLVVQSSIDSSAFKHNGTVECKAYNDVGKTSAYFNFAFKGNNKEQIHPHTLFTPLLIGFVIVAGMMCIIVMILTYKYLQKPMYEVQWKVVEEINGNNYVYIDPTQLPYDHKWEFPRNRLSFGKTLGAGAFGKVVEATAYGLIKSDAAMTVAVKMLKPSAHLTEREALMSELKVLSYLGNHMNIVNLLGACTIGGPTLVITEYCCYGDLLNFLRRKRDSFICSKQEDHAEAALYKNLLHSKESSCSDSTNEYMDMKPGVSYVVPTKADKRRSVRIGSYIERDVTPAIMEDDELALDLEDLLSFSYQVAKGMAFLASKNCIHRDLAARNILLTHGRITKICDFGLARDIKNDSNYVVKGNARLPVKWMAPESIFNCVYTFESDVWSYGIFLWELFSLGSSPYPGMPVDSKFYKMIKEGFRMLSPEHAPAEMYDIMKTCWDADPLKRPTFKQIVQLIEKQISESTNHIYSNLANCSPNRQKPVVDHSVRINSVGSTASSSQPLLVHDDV
Compounds were also tested using a similar assay with a 10-fold higher ATP concentration. For these samples, compounds to be tested were dissolved in DMSO to a concentration of 20 mM. These were diluted 30 μl into 120 μl of DMSO (4 mM) and 1 μl was added to an assay plate. These were then serially diluted 1:3 (50 μl to 100 μl DMSO) for a total of 8 points. Plates were prepared such that each kinase reaction is 20 μl in 1× kinase buffer (25 mM HEPES, pH 7.5, 2 mM MgCl2, 2 mM MnCl2, 0.01% Tween-20, 1 mM DTT, and 0.001% BSA), 5% DMSO and 100 µM ATP. Substrate was 30 nM biotin-(E4Y)10 (Upstate Biotech, Cat#12-440). C-kit kinase was at 1 ng per sample. After incubation of the kinase reaction for 1 hour at room temperature, 5 μl of donor beads (Streptavidin coated beads (Perkin Elmer Life Science) final concentration 10 μg/ml) in stop buffer (25 mM HEPES pH 7.5, 100 mM EDTA, 0.3% BSA) was added, the sample was mixed and incubated for 20 minutes at room temperature before adding 5 μl of acceptor beads (PY20 coated beads (Perkin Elmer Life Science) final concentration 10 μg/ml) in stop buffer. The samples were incubated for 60 minutes at room temperature and the signal per well was read on AlphaQuest or Envision reader (Perkin Elmer Life Science). Phosphorylated substrate results in binding of the PY20 antibody and association of the donor and acceptor beads such that signal correlates with kinase activity. The signal vs. compound concentration was used to determine the IC50.
The c-kit enzyme used in the above assay was either obtained from Cell Signaling Technology (Cat. #7754) or was prepared as follows: A plasmid encoding kit (DNA and encoded protein sequences shown below) was engineered using common polymerase chain reaction (PCR) methods. Complementary DNA cloned from various human tissues were purchased from Invitrogen, and these were used as substrates in the PCR reactions. Specific custom synthetic oligonucleotide primers were designed to initiate the PCR product, and also to provide the appropriate restriction enzyme cleavage sites for ligation with the plasmids. […]

Assay [1] has as its system BaF3-FL KIT D816V or BaF3-FL KIT V560G/D816V cell line. Put plainly: Cell-based assays of c-Kit mutant kinase activity (cell growth, ATPlite). Conditions: at least one of the c-kit cell assays of Example 26. In short, it runs like this:
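BaF3 cells dependent on full-length human KIT (D816V or V560G/D816V) seeded at 1×10^4 cells/well in RPMI with 10% FBS. Eight-point 1:3 dilutions from 10 μM top final (0.2% DMSO), 3 days at 37° C., 5% CO2. ATPlite luminescence gave IC50.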
In general terms: ATP-based viability assays read luminescence as a measure of living cells.

Broadly, the IC50 is the concentration that inhibits the measured activity by half. Higher therefore signals weaker potency in that assay.

c-kit mutant D816V, sequence (P10721 other isoform, or with tags, fused parts or gaps D816V/del 694-753): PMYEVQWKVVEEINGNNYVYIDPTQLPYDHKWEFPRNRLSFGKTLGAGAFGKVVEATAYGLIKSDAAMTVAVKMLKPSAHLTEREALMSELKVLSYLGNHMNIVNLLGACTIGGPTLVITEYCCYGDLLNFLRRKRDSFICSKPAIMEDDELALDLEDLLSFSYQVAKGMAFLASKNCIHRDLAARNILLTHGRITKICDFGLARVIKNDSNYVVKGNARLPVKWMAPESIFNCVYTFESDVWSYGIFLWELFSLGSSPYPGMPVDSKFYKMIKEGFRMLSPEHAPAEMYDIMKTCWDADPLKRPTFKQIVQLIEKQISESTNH

Consider `O=C(Nc1cnc2[nH]c(-c3ccccc3)cc2c1)c1n[nH]c2ccc(F)cc12` [P-2010, 5-fluoro-N-(2-phenyl-1H-pyrrolo[2,3-b]pyridin-5-yl)-1H-indazole-3-carboxamide], for which the IC50 on c-kit mutant D816V and against c-kit kinase was 10 to 200 µM each time.
On to `O=S(=O)(Nc1cnc2[nH]c(-c3ccccc3)cc2c1)c1cn[nH]c1` [P-2018], for which the half-inhibitory concentration (IC50) at c-kit mutant D816V and on c-kit kinase was 10 to 200 µM throughout.
Turning to `NC(=O)c1cccc(C(=O)Nc2cnc3[nH]c(-c4ccc(F)cc4)cc3c2)c1` [P-2020, N3-[2-(4-fluorophenyl)-1H-pyrrolo[2,3-b]pyridin-5-yl]benzene-1,3-dicarboxamide], the half-maximal inhibitory concentration (IC50) in assay [1] is less than 10 µM; against c-kit kinase, 1 to 10 µM.
As to `Cc1n[nH]c(C(=O)Nc2cnc3[nH]c(I)cc3c2)c1C` [P-2188, N-(2-iodo-1H-pyrrolo[2,3-b]pyridin-5-yl)-3,4-dimethyl-1H-pyrazole-5-carboxamide], the IC50 in assay [1] is less than 10 µM; on c-kit mutant D816V, 1 to 10 µM.
In the same order, the values of `Cc1n[nH]c(C(=O)Nc2cnc3[nH]c(-c4ccc(F)nc4)cc3c2)c1C` [P-2269, N-[2-(6-fluoro-3-pyridyl)-1H-pyrrolo[2,3-b]pyridin-5-yl]-3,4-dimethyl-1H-pyrazole-5-carboxamide] are less than 10 µM and 0.0001 to 1 µM.
In the case of `Cc1n[nH]c(C(=O)Nc2cnc3[nH]c(-c4ccc(F)cc4)cc3c2)c1F` [P-2275, 4-fluoro-N-[2-(4-fluorophenyl)-1H-pyrrolo[2,3-b]pyridin-5-yl]-3-methyl-1H-pyrazole-5-carboxamide], the results for the IC50 (in assay [1]; against c-kit mutant D816V) were less than 10 µM and 0.0001 to 1 µM, respectively.
Take `Cc1n[nH]c(C(=O)Nc2cnc3[nH]c(-c4cccc(C(=O)NCC(C)C)c4)cc3c2)c1C` [P-2276, N-[2-[3-(isobutylcarbamoyl)phenyl]-1H-pyrrolo[2,3-b]pyridin-5-yl]-3,4-dimethyl-1H-pyrazole-5-carboxamide]: the IC50 in assay [1] is less than 10 µM; at c-kit mutant D816V, 0.0001 to 1 µM.
On to `Cc1n[nH]c(C(=O)Nc2cnc3[nH]c(-c4ccc(F)c(C)c4C)cc3c2)c1C` [P-2279, N-[2-(4-fluoro-2,3-dimethyl-phenyl)-1H-pyrrolo[2,3-b]pyridin-5-yl]-3,4-dimethyl-1H-pyrazole-5-carboxamide], for which the IC50 in assay [1] was less than 10 µM; at c-kit kinase it was 10 to 200 µM.
As for `Cc1nc(F)ccc1-c1cc2cc(NC(=O)c3[nH]nc(C)c3C)cnc2[nH]1` [P-2283, N-[2-(6-fluoro-2-methyl-3-pyridyl)-1H-pyrrolo[2,3-b]pyridin-5-yl]-3,4-dimethyl-1H-pyrazole-5-carboxamide], the IC50 in assay [1] is less than 10 µM; on c-kit mutant D816V it was 0.0001 to 1 µM.
In the case of `Cc1c(C(F)F)n[nH]c1C(=O)Nc1cnc2[nH]c(-c3ccc(F)cc3)cc2c1` [P-2287, 3-(difluoromethyl)-N-[2-(4-fluorophenyl)-1H-pyrrolo[2,3-b]pyridin-5-yl]-4-methyl-1H-pyrazole-5-carboxamide], the IC50 was less than 10 µM in assay [1] and 0.0001 to 1 µM against c-kit mutant D816V.
In the same order, the values of `O=C(Nc1cnc2[nH]c(I)cc2c1)c1cccc2n[nH]cc12` [P-2288, N-(2-iodo-1H-pyrrolo[2,3-b]pyridin-5-yl)-2H-indazole-4-carboxamide] are less than 10 µM and 1 to 10 µM.
In the case of `Cc1cc2cc(NC(=O)c3cccc4n[nH]cc34)cnc2[nH]1` [P-2301, N-(2-methyl-1H-pyrrolo[2,3-b]pyridin-5-yl)-2H-indazole-4-carboxamide], the IC50 is less than 10 µM in assay [1] and 10 to 200 µM against c-kit kinase.
